Measured values taken from US20030036562A1, “Water-soluble dendrimeric fullerene as anti-HIV therapeutic” (priority 2001, published 2003).
Read-outs that look alike come from different tables or passages of the source.

Assays:
Anti-C60 = conditions: measured inhibition of bovine thyroglobulin-fullerene conjugate binding by test compound; cited from earlier work
Protease = target: T1, Protease (Human immunodeficiency virus type 1 group M subtype B, UniProt P04585); conditions: FDA-approved drugs; cited from earlier work
T1 construct: Protease

[1] = in vivo; cited from earlier work
HIV-1 (wild type) = conditions: FDA-approved drugs; cited from earlier work
M184V (3TC resistant) = conditions: cited from earlier work
[2] = target: T2, recombinant HIV-1 p66/51 reverse transcriptase (Human immunodeficiency virus type 1 group M subtype B, UniProt P04585); assay: Inhibition of p66/51 reverse transcriptase; format: biochemical
T2 construct: recombinant HIV-1 p66/51 reverse transcriptase

Vero cells = conditions: cited from earlier work
[3] = test system: CEM (human lymphoblastoid) cells; conditions: cited from earlier work
RT = RT (Human immunodeficiency virus type 1 group M subtype B, UniProt P04585); conditions: FDA-approved drugs; cited from earlier work
H9 cells = conditions: cited from earlier work
[4] = cited from earlier work
[5] = M184V, common RT mutant, FDA-approved drugs, read-out: EC50

Molecule: fullerenol [C]
- Kd (Anti-C60): 750 µg/mL

Molecule: CC(C)(C)NC(=O)[C@@H]1C[C@@H]2CCCC[C@@H]2CN1C[C@@H](O)[C@H](Cc1ccccc1)NC(=O)[C@H](CC(N)=O)NC(=O)c1ccc2ccccc2n1 [Saquinavir]
- Protease Inhibitor (Protease): yes
- Oral Bioavailability [1]: ˜4%

Molecule: CC(C)(C)NC(=O)[C@@H]1CN(Cc2cccnc2)CCN1C[C@@H](O)C[C@@H](Cc1ccccc1)C(=O)N[C@H]1c2ccccc2C[C@H]1O [Indinavir]
- EC50 (HIV-1 (wild type)): ~100 nM
- Protease Inhibitor (Protease): yes

Molecule: CC(C)c1nc(CN(C)C(=O)N[C@H](C(=O)N[C@@H](Cc2ccccc2)C[C@H](O)[C@H](Cc2ccccc2)NC(=O)OCc2cncs2)C(C)C)cs1 [Ritonavir]
- EC50 (HIV-1 (wild type)): 45 nM
- EC50 (M184V (3TC resistant); [5]): 800 nM
- Protease Inhibitor (Protease): yes
- Oral Bioavailability [1]: ˜78%

Molecule: Cc1cn([C@H]2C[C@H](N=[N+]=[N-])[C@@H](CO[P@](=O)(O)O[P@](=O)(O)OP(=O)(O)O)O2)c(=O)[nH]c1=O [AZTTP]
- inhibition at 0.001 µM ([2]; 0.001 μM): 8%
- inhibition at 0.01 µM ([2]; 0.01 μM): 35.7%
- inhibition at 0.1 µM ([2]; 0.1 μM): 72.7%
- inhibition at 1 µM ([2]; 1 μM): 97%
- inhibition at 10 µM ([2]; 10 μM): 99.6%
- 1C 90 ([2]; p66/51 1 unit/rxn, (rA)n.(dT)12-18): 0.27 µM
- IC50 ([2]; p66/51 1 unit/rxn, (rA)n.(dT)12-18, read-out: 1C 50): 21 nM

Molecule: Nc1ccn([C@@H]2CS[C@H](CO)O2)c(=O)n1 [Compound 3TC, 3TC]
- EC50 (HIV-1 (wild type)): 180 nM
- EC50 (M184V (3TC resistant); [5]): > 100000 nM
- EC50 (M184V (3TC resistant); text b84, unit inferred, read-out: activity against M184V): > 100000 nM

Molecule: D3-carboxyfullerene
- Kd (Anti-C60): 38 µg/mL

Molecule: Cc1cn([C@H]2C[C@H](N=[N+]=[N-])[C@@H](CO)O2)c(=O)[nH]c1=O [AZT]
- EC50 (HIV-1 (wild type)): 50 nM
- EC50 (M184V (3TC resistant); [5]): 10 nM
- cytotoxicity (in words) (Vero cells): cytotoxic
- cytotoxicity (in words) [3]: cytotoxic
- IC50 ([2]; poly (rA)n oligo (dT)12 template primer, text b87, unit inferred, read-out: IC50 against RT): 21 nM
- RT Inhibitor (RT): yes
- cytotoxicity (in words) (H9 cells): cytotoxic

Molecule: Cc1c(O)cccc1C(=O)N[C@@H](CSc1ccccc1)[C@H](O)CN1C[C@H]2CCCC[C@H]2C[C@H]1C(=O)NC(C)(C)C [Nelfinavir]
- EC50 (M184V (3TC resistant); [5]): 400 nM
- Protease Inhibitor (Protease): yes
- Oral Bioavailability [1]: 52%

Molecule: CC(C)CN(C[C@@H](O)[C@H](Cc1ccccc1)NC(=O)O[C@H]1CCOC1)S(=O)(=O)c1ccc(N)cc1 [Amprenavir]
- EC50 (HIV-1 (wild type)): 54 nM
- EC50 (M184V (3TC resistant); [5]): 500 nM
- Protease Inhibitor (Protease): yes

Molecule: C3-carboxyfullerene
- Kd (Anti-C60): 250 µg/mL

Molecule: c12c3c4c5c1c1c6c7c2c2c8c3c3c9c4c4c%10c5c5c1c1c6c6c%11c7c2c2c7c8c3c3c8c9c4c4c9c%10c5c5c1c1c6c6c%11c2c2c7c3c3c8c4c4c9c5c1c1c6c2c3c41 [unmodified C60, C60]
- toxicity in vivo (in words) [4]: non toxic even at high doses
